Several values for one entry are separate records, joined by “and”; a condition that tells them apart may be missing. Identical values can stand only once.
What was measured:
[1] = system: Dizocilpine-induced learning impairments in mice; test: Spontaneous alternation in the Y-maze, Dizocilpine-induced learning impairments; format: in vivo
Description: The Y-maze is made of grey polyvinylchloride. Each arm is 40 cm long, 13 cm high, 3 cm wide at the bottom, 10 cm wide at the top, and converging at an equal angle. Each mouse was placed at the end of one arm and allowed to move freely through the maze during an 8 min session. The series of arm entries, including possible returns into the same arm, were checked visually. An alternation is defined as entries into all three arms on consecutive occasions. The number of maximum alternations is therefore the total number of arm entries minus two and the percentage of alternation was calculated as (actual alternations / maximum alternations) × 100 (Maurice et al., 1996; Meunier et al., 2006, 2013). Exclusion criteria are locomotion < 10 or percentage of alternation < 25% or > 90%. Animals showing these readouts are excluded from the calculations. Attrition is routinely < 5% in this test.
Due to the chaperone nature of SIG-1R, a SIG-1R positive modulator behaves as an agonist in vivo, particularly on learning and memory abilities in mice (Maurice et al., 2019; Vavers et al., 2019). Convolamine was tested on Dizocilpine-induced learning impairments, a well-characterized SIG-1R-mediated response in mice (Maurice et al., 1994, 2001). The NMDA receptor noncompetitive antagonist Dizocilpine (0.15 mg/kg IP) prevented spontaneous alternation behavior (Fig. 4A) and increased mobility (Fig. 4B) in the Y-maze. […] Co-treatment with the SIG-1R antagonist NE-100 at 1 mg/kg IP, blocked the attenuating effect of Convolamine (Fig. 4C), thus confirming the SIG-1R-mediated effect.

[2] = biological target: T1, SIG-1R/BiP (Homo sapiens, UniProt Q99720); test: SIG-1R/BiP dissociation assay in GFP-SIG-1R-overexpressing CHO cells; format: cell-based; details: for dissociation of SIG-1R from BiP (in words) / dissociation of the SIG-1R/BiP complex (in words): compound alone; for dissociation of the SIG-1R/BiP complex (in words): no concentration stated
T1 construct: host or cells: CHO cells overexpressing GFP-SIG-1R
T1 sequence (Q99720 whole entry): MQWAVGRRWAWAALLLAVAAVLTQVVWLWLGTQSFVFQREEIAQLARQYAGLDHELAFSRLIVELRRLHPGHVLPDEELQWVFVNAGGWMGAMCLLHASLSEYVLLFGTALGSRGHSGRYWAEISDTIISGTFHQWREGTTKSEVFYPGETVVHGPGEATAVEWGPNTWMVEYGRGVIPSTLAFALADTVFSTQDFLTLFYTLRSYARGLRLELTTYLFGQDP
Description: CHO cells which overexpress GFP tagged-SIG-1R (gift from Tsung-Ping Su, NIDA/NIH, Baltimore, MD, USA) were maintained in DMEM/Glutamax culture medium supplemented with 10% heat inactivated FBS. GFP-SIG-1Roe CHO cells were plated in 6-well plates and treated with test compounds dissolved in culture medium for 30 min at 37°C. The reaction was terminated by removing the culture medium containing the test drug and replacing it with 1 ml of PBS. GFP-SIG-1R-oe CHO cells were harvested and suspended in PBS (pH 7.4) followed by cross-linking with 50 µg/ml of dithiobis succinimidyl propionate (ThermoFisher, France). The reaction was stopped by adding Tris/HCl 50 mM (pH 8.8). After a 15 min incubation on ice, cells were lysed with 50 mM Tris (pH 7.4), 150 mM NaCl, 1% Triton X/100, 0.3% sodium deoxycholate, 0.1% SDS buffer containing a protease inhibitor cocktail (Sigma-Aldrich, France). After centrifugation at 16,000 g for 1 min, the supernatant was incubated with Chromotek GFP-trap agarose (Proteintech, United Kingdom) overnight at 4°C.

[3] = system: Kv channel; test: CEREP in vitro binding assay (pharmacological profiling)
[4] = system: Male Swiss mice; test: Open field activity test (anxiolytic effect) and observation of animals; format: in vivo
Description: Drug administration: Route: intraperitoneal (IP), Method: by injection. The drug was administered under a volume calculated according to the individual body weight of each mouse (5 ml/kg), Frequency: once before the behavioral procedure, Treatment length: once, Timing: 30 minutes before behavioral procedure.
Health of animals was checked daily: general aspect of animals, activity, acute or delayed mortality. Weight was monitored the day of experiment.
The day of the test, animals were tested for general locomotor activity in the open field (OF) activity test for 10 min. The open field is made of opaque white plexiglass. The arena is composed of a large square box (50cm × 50cm × 50cm). Animal movements were followed by an overhead camera placed above the apparatus. Each mouse was placed in the center of the arena and allowed to move freely through the arena during its session. The locomotor activity was assessed by counting the total distance traveled measured in centimeters (cm) for the whole session time. The time spent in center area, and the number of defecations were also assessed.

COc1ccc(C(=O)OC2CC3CCC(C2)N3C)cc1OC (stereo not shown) [Convolamine, (8-methyl-8-azabicyclo[3.2.1]octan-3-yl) 3,4-dimethoxybenzoate]
Dizocilpine-induced alternation deficit (in words) ([1]; 0.1-1 mg/kg IP range, 10 min before Dizocilpine […] IP): attenuated, dose-dependently and significantly but in a bell-shaped manner
attenuating effect of Convolamine on alternation deficit under NE-100 co-treatment (in words) ([1]; Convolamine 1 mg/Kg IP with NE-100 at 1 mg/kg IP): blocked
IC50 ([2]; IC50 of SIG-1R positive modulatory action (displacement of PRE-084 efficacy to dissociate SIG-1R from BiP), convolamine 0.1-10 µM with PRE-084): 290 nM and 289 nM
dissociation of SIG-1R from BiP (in words) ([2]; at concentrations < 10 µM): failed to dissociate SIG-1R from BiP
dissociation of SIG-1R from BiP (in words) ([2]; at concentrations up to 30 µM): failed to dissociate SIG-1R from BiP
dissociation of the SIG-1R/BiP complex (in words) [2]: did not induce the dissociation
dissociation of the SIG-1R/BiP complex (in words) ([2]; listed as convolamine): does not allow the dissociation
inhibition at 0.1 µM ([3]; 0.1 µM, duplicates): 30.4%
inhibition at 1 µM ([3]; 1 µM, duplicates): 22.7%
inhibitions of the selective radiotracer ([3]; at micromolar concentrations, range given jointly for CB2, Kv, 5-HT3): 20-60%
percentage of locomotion in center of the arena (in words) ([4]; IP 30 minutes before the test): increase
time spent in the center of the arena (in words) ([4]; IP 30 minutes before the test, compared to the vehicle-treated group): significant and bell-shaped increase
mortality and adverse effect (in words) ([4]; single IP injection, daily health check): No mortality nor adverse effect
